Values of other authors as cited in PubChem BioAssay AID1259409 (Chemical Carcinogenesis Research Information System (CCRIS), 2018).
Where “and” joins values, the source holds several entries; their conditions need not be identical. Equal entries are not always repeated.

Test system: rodent chemically induced tumor inhibition, incidence and multiplicity
Assay: CCRIS tumor inhibitor studies

C=C(C)C1CC=C(CO)CC1 (stereo not drawn)
tumour outcome (control, treated, inhibition, significance) (Carcinogen: 4-(METHYLNITROSAMINO)-1-(3-PYRIDYL)-1-BUTANONE, 64091-91-4, Dose [Inhibitor]: 0, 75 MG/KG BW 3/WK FOR 22 WK BEGINNING 1 WK PRIOR TO CARCINOGEN TREATMENT (STUDY DURATION: 23 WK), Route [Inhibitor]: INTRAPERITONEAL, Species: MOUSE, Strain/Sex: C3AF1/MALE, Target Tissue: Type of Lesion: LUNG: TUMOR, Dose [Carcinogen]: 100 MG/KG BW 1/WK FOR 2 WK, Promoter: NONE USED): 100%, 79%, 21%, p<0.005
tumour outcome (control, treated, inhibition, significance) (Carcinogen: AZOXYMETHANE [25843-45-2], Dose [Inhibitor]: 1 G/KG IN DIET FOR 55 WK BEGINNING 2 WK PRIOR TO FIRST CARCINOGEN DOSE (STUDY DURATION: 55 WK), Route [Inhibitor]: ORAL, Species: RAT, Strain/Sex: F344/MALE, Target Tissue: Type of Lesion: COLON: ADENOCARCINOMA, Dose [Carcinogen]: 15 MG/KG BW 1/WK FOR 2 WK (STUDY DURATION: 55 WK), Promoter: NONE): 78%, 64%, 18%, not significant and 78%, 56%, 29%, p<0.05
tumour outcome (control, treated, inhibition, significance) (Carcinogen: AZOXYMETHANE [25843-45-2], Dose [Inhibitor]: 1 G/KG IN DIET FOR 55 WK BEGINNING 2 WK PRIOR TO FIRST CARCINOGEN DOSE (STUDY DURATION: 55 WK), Route [Inhibitor]: ORAL, Species: RAT, Strain/Sex: F344/MALE, Target Tissue: Type of Lesion: SMALL INTESTINE: ADENOCARCINOMA, Dose [Carcinogen]: 15 MG/KG BW 1/WK FOR 2 WK (STUDY DURATION: 55 WK), Promoter: NONE): 31%, 28%, 9%, not significant
tumour outcome (control, treated, inhibition, significance) (Carcinogen: AZOXYMETHANE [25843-45-2], Dose [Inhibitor]: 2 G/KG IN DIET FOR 55 WK BEGINNING 2 WK PRIOR TO FIRST CARCINOGEN DOSE (STUDY DURATION: 55 WK), Route [Inhibitor]: ORAL, Species: RAT, Strain/Sex: F344/MALE, Target Tissue: Type of Lesion: SMALL INTESTINE: ADENOCARCINOMA, Dose [Carcinogen]: 15 MG/KG BW 1X/WK FOR 2 WK (STUDY DURATION: 55 WK), Promoter: NONE): 31%, 11%, 64%, p<0.05

CC(C)(O)CCC(=O)C(C)(O)C1[C@H](O)C[C@@]2(C)[C@@H]3CC=C4[C@@H](C[C@H](O)[C@@H](O)C4(C)C)[C@]3(C)C(=O)C[C@]12C (stereo partly drawn)
tumour outcome (control, treated, inhibition, significance) (Carcinogen: 7,12-DIMETHYLBENZ[A]ANTHRACENE, 57-97-6, Dose [Inhibitor]: 0, 85 NMOL IN 0.1 ML ACETONE APPLIED 1 HR PRIOR TO EACH PROMOTER DOSE 2/WK FOR 20 WK (STUDY DURATION: 21 WK), Route [Inhibitor]: DERMAL, Species: MOUSE, Strain/Sex: ICR/FEMALE, Target Tissue: Type of Lesion: SKIN: PAPILLOMA, Dose [Carcinogen]: 100 UG IN 0.1 ML ACETONE ONCE, Promoter: 12-O-TETRADECANOYLPHORBOL-13-ACETATE, 16561-29-8): 100%, 100%, 0%, not significant

CCCCCCCCCC
tumour outcome (control, treated, inhibition, significance) (Carcinogen: BENZO[A]PYRENE, 50-32-8, Dose [Inhibitor]: 25 MG IN 0.1 ML ACETONE 3/WK ADMINISTERED SIMULTANEOUSLY WITH CARCINOGEN FOR DU RATION OF STUDY (STUDY DURATION: 440 D), Route [Inhibitor]: DERMAL, Species: MOUSE, Strain/Sex: ICR/FEMALE, Target Tissue: Type of Lesion: SKIN: SQUAMOUS CARCINOMA, Dose [Carcinogen]: 5 UG IN 0.1 ML ACETONE 3/WK FOR DURATION OF STUDY, Promoter: NONE USED): 12/50 (24%), 34/50 (68%), -183%, not calculated
tumour outcome (control, treated, inhibition, significance) (Carcinogen: BENZO[A]PYRENE, 50-32-8, Dose [Inhibitor]: 25 MG IN 0.1 ML ACETONE 3/WK ADMINISTERED SIMULTANEOUSLY WITH CARCINOGEN FOR DURATION OF STUDY (STUDY DURATION: 440 D), Route [Inhibitor]: DERMAL, Species: MOUSE, Strain/Sex: ICR/FEMALE, Target Tissue: Type of Lesion: SKIN: PAPILLOMA, Dose [Carcinogen]: 5 UG IN 0.1 ML ACETONE 3/WK FOR DURATION OF STUDY, Promoter: NONE USED): 16/50 (32%), 38/50 (76%), -138%, not calculated

C/C=C/S/C=C/C
tumour outcome (control, treated, inhibition, significance) (Carcinogen: 7,12-DIMETHYLBENZ[A]ANTHRACENE, 57-97-6, Dose [Inhibitor]: 0, 1 MG IN 0.2 ML ACETONE APPLIED 30 MIN AFTER EACH MEZEREIN DOSE (STUDY DURATION: 20 WK), Route [Inhibitor]: DERMAL, Species: MOUSE, Strain/Sex: SENCAR/FEMALE, Target Tissue: Type of Lesion: SKIN: PAPILLOMA, Dose [Carcinogen]: 0.1 UMOL IN 0.2 ML ACETONE ONCE, Promoter: TPA, 16561-29-8, MEZEREIN, 37807-41-5, Promoter: TPA, 16561-29-8, MEZEREIN, 37807-41-5): 100%, 86%, 14%, p<0.005
tumour outcome (control, treated, inhibition, significance) (Carcinogen: 7,12-DIMETHYLBENZ[A]ANTHRACENE, 57-97-6, Dose [Inhibitor]: 0, 1 MG IN 0.2 ML ACETONE APPLIED 30 MIN AFTER EACH TPA DOSE (STUDY DURATION: 20 WK), Route [Inhibitor]: DERMAL, Species: MOUSE, Strain/Sex: SENCAR/FEMALE, Target Tissue: Type of Lesion: SKIN: PAPILLOMA, Dose [Carcinogen]: 0.1 UMOL IN 0.2 ML ACETONE ONCE, Promoter: TPA, 16561-29-8, MEZEREIN, 37807-41-5, Promoter: TPA, 16561-29-8, MEZEREIN, 37807-41-5): 100%, 91%, 9%, p<0.005

Cc1ncc(C[n+]2csc(CCO)c2C)c(N)n1
tumour outcome (control, treated, inhibition, significance) (Carcinogen: 7,12-DIMETHYLBENZ[A]ANTHRACENE, 57-97-6, Dose [Inhibitor]: 0.2% IN DRINKING WATER DAILY STARTING 4 WK BEFORE CARCINOGEN TREATMENT AND CONTINUING FOR DURATION OF STUDY (STUDY DURAT, Route [Inhibitor]: ORAL, Species: MOUSE, Strain/Sex: 101/MALE, FEMALE, Target Tissue: Type of Lesion: SKIN: PAPILLOMA, Dose [Carcinogen]: 225 UG IN 0.15 ML ACETONE ONCE, Promoter: CROTON OIL, 8001-28-3): 17/19 (89%), 18/20 (90%), -1%, not calculated
tumour outcome (control, treated, inhibition, significance) (Carcinogen: BENZO[A]PYRENE, 50-32-8, Dose [Inhibitor]: 2.5 MG 2/WK FOR 20 WK STARTING 4 WK BEFORE START OF CARCINOGEN TREATMENT PLUS 0.2% IN DRINKING WATER (STUDY DURATION: 22, Route [Inhibitor]: SUBCUTANEOUS, ORAL, Species: MOUSE, Strain/Sex: 101/MALE, FEMALE, Target Tissue: Type of Lesion: SKIN: PAPILLOMA, Dose [Carcinogen]: 0.2 ML OF 0.25% 2/WK FOR 20 WK, Promoter: NONE USED): 13/18 (72%), 5/8 (63%), 13%, not calculated
tumour outcome (control, treated, inhibition, significance) (Carcinogen: BENZO[A]PYRENE, 50-32-8, Dose [Inhibitor]: 2.5 MG 2/WK FOR 20 WK STARTING 4 WK BEFORE START OF CARCINOGEN TREATMENT PLUS 0.2% IN DRINKING WATER (STUDY DURATION: 37, Route [Inhibitor]: SUBCUTANEOUS, ORAL, Species: MOUSE, Strain/Sex: 101/MALE, FEMALE, Target Tissue: Type of Lesion: SKIN: MALIGNANT TUMOR, Dose [Carcinogen]: 0.2 ML OF 0.25% 2/WK FOR 20 WK, Promoter: NONE USED): 12/18 (67%), 5/8 (63%), 6%, not calculated
tumour outcome (control, treated, inhibition, significance) (Carcinogen: ETHYLNITROSOUREA, 759-73-9, Dose [Inhibitor]: 0, 500 MG/KG MIXED WITH STARCH 1:20 (WEIGHT: WEIGHT) IN DIET 5 D/WK FOR 10 MO (STUDY DURATION: 10 MO), Route [Inhibitor]: ORAL, Species: RAT, Strain/Sex: ALBINO/MALE,FEMALE, Target Tissue: Type of Lesion: BRAIN: GLIOMA OR ASTROCYTOMA, Dose [Carcinogen]: 75 MG/KG IN SALINE BY INTRAVENOUS INJECTION ONCE 21 D AFTER CONCEPTION): 21/40 (52%), 14/20 (70%), -35%, not calculated
tumour outcome (control, treated, inhibition, significance) (Carcinogen: ETHYLNITROSOUREA, 759-73-9, Dose [Inhibitor]: 0, 500 MG/KG MIXED WITH STARCH 1:20 (WEIGHT: WEIGHT) IN DIET 5 D/WK FOR 10 MO (STUDY DURATION: 10 MO), Route [Inhibitor]: ORAL, Species: RAT, Strain/Sex: ALBINO/MALE,FEMALE, Target Tissue: Type of Lesion: KIDNEY: MESENCHYMAL TUMOR OR ADENOCARCINOMA, Dose [Carcinogen]: 75 MG/KG IN SALINE BY INTRAVENOUS INJECTION ONCE 21 D AFTER CONCEPTION): 11/40 (28%), 10/20 (50%), -79%, not calculated
tumour outcome (control, treated, inhibition, significance) (Carcinogen: ETHYLNITROSOUREA, 759-73-9, Dose [Inhibitor]: 0, 500 MG/KG MIXED WITH STARCH 1:20 (WEIGHT: WEIGHT) IN DIET 5 D/WK FOR 10 MO (STUDY DURATION: 10 MO), Route [Inhibitor]: ORAL, Species: RAT, Strain/Sex: ALBINO/MALE,FEMALE, Target Tissue: Type of Lesion: NERVOUS SYSTEM: SCHWANNOMA, Dose [Carcinogen]: 75 MG/KG IN SALINE BY INTRAVENOUS INJECTION ONCE 21 D AFTER CONCEPTION): 19/40 (48%), 5/20 (25%), 48%, not calculated
tumour outcome (control, treated, inhibition, significance) (Carcinogen: ETHYLNITROSOUREA, 759-73-9, Dose [Inhibitor]: 0, 500 MG/KG MIXED WITH STARCH 1:20 (WEIGHT: WEIGHT) IN DIET 5 D/WK FOR 10 MO (STUDY DURATION: 10 MO), Route [Inhibitor]: ORAL, Species: RAT, Strain/Sex: ALBINO/MALE,FEMALE, Target Tissue: Type of Lesion: SPINAL CORD: TUMOR, Dose [Carcinogen]: 75 MG/KG IN SALINE BY INTRAVENOUS INJECTION ONCE 21 D AFTER CONCEPTION): 17/40 (42%), 4/20 (20%), 52%, not calculated

C=CC(C)(O)CCC=C(C)C (stereo not drawn)
tumour outcome (control, treated, inhibition, significance) (Carcinogen: AZOXYMETHANE, 25843-45-2, Dose [Inhibitor]: 0, 5 MG/G IN DIET FOR 22 WK BEGINNING 3 D POST LAST CARCINOGEN DOSE (STUDY DURATION: 25 WK), Route [Inhibitor]: ORAL, Species: RAT, Strain/Sex: F344/MALE, Target Tissue: Type of Lesion: DUODENUM: ADENOCARCINOMA, Dose [Carcinogen]: 15 MG/KG BW 2/WK FOR 3 WK, Promoter: NONE USED): 50%, 26%, 48%, not significant
tumour outcome (control, treated, inhibition, significance) (Carcinogen: AZOXYMETHANE, 25843-45-2, Dose [Inhibitor]: 0, 5 MG/G IN DIET FOR 22 WK BEGINNING 3 D POST LAST CARCINOGEN DOSE (STUDY DURATION: 25 WK), Route [Inhibitor]: ORAL, Species: RAT, Strain/Sex: F344/MALE, Target Tissue: Type of Lesion: LARGE BOWEL: ADENOMATOUS POLYP, Dose [Carcinogen]: 15 MG/KG BW 2/WK FOR 3 WK, Promoter: NONE USED): 82%, 79%, 4%, not significant
